pIC50: −log10 of the molar value.
These compounds were tested against T1, Full length (FL) 3-Phosphoglycerate Dehydrogenase (PHGDH) (Homo sapiens, UniProt O43175) (assay: Full length (FL) PHGDH Diaphorase coupled assay (500 uM NAD)). Conditions: full-length PHGDH 5 nM, 30° C. 60 minutes, resorufin fluorescence.
T1 construct: Full length (FL) 3-Phosphoglycerate Dehydrogenase (PHGDH) Diaphorase coupled assay (500 uM NAD)
T1 sequence (O43175 1-533): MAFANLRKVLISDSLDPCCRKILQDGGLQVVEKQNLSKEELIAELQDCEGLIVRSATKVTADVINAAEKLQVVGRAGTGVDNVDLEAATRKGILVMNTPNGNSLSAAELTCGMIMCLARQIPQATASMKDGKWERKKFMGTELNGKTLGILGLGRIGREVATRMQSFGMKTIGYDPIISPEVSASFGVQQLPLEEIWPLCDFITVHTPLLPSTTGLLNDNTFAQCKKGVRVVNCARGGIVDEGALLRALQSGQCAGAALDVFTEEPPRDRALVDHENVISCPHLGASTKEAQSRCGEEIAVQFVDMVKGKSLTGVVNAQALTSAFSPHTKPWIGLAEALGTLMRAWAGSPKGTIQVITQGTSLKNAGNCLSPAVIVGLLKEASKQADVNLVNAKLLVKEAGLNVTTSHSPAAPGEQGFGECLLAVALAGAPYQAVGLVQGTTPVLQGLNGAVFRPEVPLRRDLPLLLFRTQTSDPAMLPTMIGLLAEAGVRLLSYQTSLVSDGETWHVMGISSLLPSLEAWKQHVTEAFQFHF
Type: biochemical
Experimental: Full length (FL) 3-Phosphoglycerate Dehydrogenase (PHGDH) Diaphorase coupled assay (500 uM NAD)
PHGDH activity was determined by detecting the NADH produced during the reaction. Diaphorase was used to catalyze the oxidation of NADH with the concomitant reduction of resazurin to the fluorescent product resorufin. Resorufin fluorescence quantitatively reflected the production of NADH by the PHGDH reaction. To drive the forward reaction, two enzymes in the serine synthesis pathway subsequent to PHGDH, Phosphoserine aminotransferase (PSAT1) and phosphoserine phosphatase (PSPH) were also added to the reaction.
Briefly, serial dilution of compounds were incubated in a volume of 20 μL in 384 well plates with the assay mixture containing 5 nM PHGDH, 500 nM PSAT1, 500 nM PSPH, 500 μM NAD^+, 80 uM 3-phosphoglycerate, 1 mM glutamate, 57 uM Resazurin and 0.2 mg/ml Diaphorase in assay buffer containing 50 mM Trisethanoloamine (TEA) pH8.0, 10 mM MgCl2, 0.01% Tween-20 and 0.05% Bovine Serum Albumin (BSA). The plate was then incubated at 30° C. for 60 minutes and resorufin fluorescence was measured at emission wavelength 598 nm following excitation at 525 nm. The positive control consisted of the complete reaction mixture with 4% DMSO and was set to 0% inhibition.

| Structure (SMILES) | pIC50 |
| --- | --- |
| Cn1c(C(=O)NC2(c3ccc(C(=O)O)cc3)CCOC2)cc2c(Cl)cc(OCC3CNC(=O)O3)cc21 (racemic) [I-95 e96] | 5.30 to 6.00 |
| Cn1c(C(=O)NC2(c3ccc(C(=O)O)c(C4CC4)c3)CCOC2)cc2c(Cl)c(Cl)ccc21 (racemic) [I-101 e157, (±)-2-cyclopropyl-4-[3-[(4,5-dichloro-1-methyl-indole-2-carbonyl)amino]-tetrahydrofuran-3-yl]benzoic acid] | 5.30 to 6.00 |
| Cn1c(C(=O)NC2(c3ccc(C(=O)O)cc3)CCOC2)cc2c(Cl)c(F)ccc21 (racemic) [I-106 e31] | 5.30 to 6.00 |
| COc1cc(Cl)c2cc(C(=O)NC3(c4ccc(C(=O)O)cc4)CCOC3)n(C)c2c1 (racemic) [I-114 e34] | 5.30 to 6.00 |
| Cn1c(C(=O)NC2(c3ccc(C(=O)O)cc3)CCOC2)cc2c(Cl)cccc21 (racemic) [I-117 e30] | 5.30 to 6.00 |
| Cn1c(C(=O)NC2(c3ccc(C(=O)O)c(C#N)c3)CCOC2)cc2c(Cl)c(Cl)ccc21 (racemic) [I-120 e154, (±)-2-Cyano-4-(3-(4,5-dichloro-1-methyl-1H-indole-2-carboxamido)tetrahydrofuran-3-yl)benzoic acid] | 6.00 to 9.00 |
| Cn1c(C(=O)NC2(c3ccc(C(=O)O)cc3)CCN(c3ccccc3)C2)cc2c(Cl)c(Cl)ccc21 (racemic) [I-121 e21] | 5.30 to 6.00 |
| COc1ccc2c(cc(C(=O)NC3(c4ccc(C(=O)O)cc4)CCOC3)n2C)c1Cl (racemic) [I-122 e26] | 6.00 to 9.00 |
| Cn1c(C(=O)NC2(c3ccc(C(=O)O)cc3)CCCOC2)cc2c(Cl)c(Cl)ccc21 (racemic) [I-123 e23] | 6.00 to 9.00 |
| Cn1c(C(=O)NC2(c3ccc(C(=O)O)cc3)CCN(CC(F)(F)F)C2)cc2c(Cl)c(Cl)ccc21 (racemic) [I-125 e19] | 5.30 to 6.00 |
| CCN1CCC(NC(=O)c2cc3c(Cl)c(Cl)ccc3n2C)(c2ccc(C(=O)O)cc2)C1 (racemic) [I-126 e18] | 5.00 to 5.30 |
| COc1ccc2c(cc(C(=O)NC3(c4ccc(C(C(=O)O)C5CCCCC5)cc4)COC3)n2C)c1Cl (racemic) [I-156 e119] | 6.00 to 9.00 |
| COc1ccc2c(cc(C(=O)NC3(c4ccc(C(C(=O)O)C5CCNCC5)cc4)COC3)n2C)c1Cl (racemic) [I-159 e121] | 6.00 to 9.00 |
| COc1ccc2c(cc(C(=O)NC3(c4ccc(C(C(=O)O)C5CCC(O)CC5)cc4)COC3)n2C)c1Cl (racemic) [I-160 e138, (±)-2-[4-[3-[(4-Chloro-5-methoxy-1-methyl-indole-2-carbonyl)amino]oxetan-3-yl]phenyl]-2-(4-hydroxycyclohexyl)acetic acid] | 6.00 to 9.00 |
| COc1cc2c(cc(C(=O)NC3(c4ccc(C(C(=O)O)C5CC5)cc4)CCOC3)n2C)c(Cl)c1Cl (racemic) [I-163 e163, (±)-2-Cyclopropyl-2-(4-(3-(4,5-dichloro-6-methoxy-1-methyl-1H-indole-2-carboxamido)tetrahydrofuran-3-yl)phenyl)acetic acid] | 6.00 to 9.00 |
| C[C@@H](C(=O)O)c1ccc(C2(NC(=O)c3cc4c(Cl)c(Cl)ccc4n3C)COC2)cc1 (single isomer, unassigned) [I-34 or I-35 e161 peak 2] | 6.00 to 9.00 |

| Structure (SMILES) | pIC50 |
| --- | --- |
| C[C@H](C(=O)O)c1ccc(C2(NC(=O)c3cc4c(Cl)c(Cl)ccc4n3C)COC2)cc1 (single isomer, unassigned) [I-35 or I-34 e160 peak 1] | 6.00 to 9.00 |
| Cn1c(C(=O)N[C@@]2(c3ccc(CC(=O)O)cc3)CCOC2)cc2c(Cl)c(Cl)ccc21 (single isomer, unassigned) [I-108 or I-109 e151 peak 2] | 6.00 to 9.00 |
| Cn1c(C(=O)N[C@]2(c3ccc(CC(=O)O)cc3)CCOC2)cc2c(Cl)c(Cl)ccc21 (single isomer, unassigned) [I-109 or I-108 e150 peak 1] | 6.00 to 9.00 |
| COc1ccc2c(cc(C(=O)NC3(c4ccc(C(CCCO)C(=O)O)cc4)COC3)n2C)c1Cl (centres unmarked) [I-11 e72] | 6.00 to 9.00 |
| COc1ccc2c(cc(C(=O)NC3(c4ccc(C(C)(C)C(=O)O)cc4)COC3)n2C)c1Cl [I-27 e110] | 6.00 to 9.00 |
| Cn1c(C(=O)NC2(c3ccc(C4(C(=O)O)CC4)cc3)COC2)cc2c(Cl)c(Cl)ccc21 [I-28 e108] | 6.00 to 9.00 |
| COc1ccc2c(cc(C(=O)NC3(c4ccc(CC(=O)O)cc4Cl)COC3)n2C)c1Cl [I-32 e64] | 6.00 to 9.00 |
| CC(C(=O)O)c1ccc(C2(NC(=O)c3cc4c(Cl)c(Cl)ccc4n3C)COC2)c(Cl)c1 (centres unmarked) [I-33 e62] | 6.00 to 9.00 |
| Cn1c(C(=O)NC2(c3ccc(C(C)(C)C(=O)O)cc3)COC2)cc2c(Cl)c(Cl)ccc21 [I-36 e107] | 6.00 to 9.00 |
| Cn1c(C(=O)NC2(c3ccc(C(C)(C)C(=O)O)cc3F)COC2)cc2c(Cl)c(Cl)ccc21 [I-37 e109] | 6.00 to 9.00 |
| Cn1c(C(=O)NC2(c3ccc(Cc4nnn[nH]4)cc3)COC2)cc2c(Cl)c(Cl)ccc21 [I-41 e92] | 6.00 to 9.00 |
| COc1cc2c(cc(C(=O)NC3(c4ccc(C(=O)O)cc4Cl)COC3)n2C)c(Cl)c1F [I-44 e76] | 6.00 to 9.00 |
| COc1cc2c(cc(C(=O)NC3(c4ccc(C(=O)O)cc4C)COC3)n2C)c(Cl)c1C [I-45 e74] | 6.00 to 9.00 |
| COc1cc2c(cc(C(=O)NC3(c4ccc(C(=O)O)cc4Cl)COC3)n2C)c(Cl)c1C [I-46 e73] | 6.00 to 9.00 |
| COc1cc2c(cc(C(=O)NC3(c4ccc(C(=O)O)cc4C)COC3)n2C)c(Cl)c1F [I-47 e77] | 6.00 to 9.00 |
| COc1cc2c(cc(C(=O)NC3(c4ccc(C(C)C(=O)O)cc4)COC3)n2C)c(Cl)c1Cl (centres unmarked) [I-48 e71] | 6.00 to 9.00 |

Next, values leading:

| pIC50 | Structure (SMILES) |
| --- | --- |
| 6.00 to 9.00 | CN1CC(COc2cc3c(cc(C(=O)NC4(c5ccc(C(=O)O)cc5)CCOC4)n3C)c(Cl)c2Cl)OC1=O (racemic) [I-93 e106] |
| 6.00 to 9.00 | Cn1c(C(=O)NC2(c3ccc(C(=O)O)cc3)CCOC2)cc2c(Cl)c(Cl)c(OCC3CCCO3)cc21 (racemic) [I-94 e98] |
| 6.00 to 9.00 | Cn1c(C(=O)NC2(c3ccc(C(=O)O)cc3)CCOC2)cc2c(Cl)c(C3CC3)ccc21 (racemic) [I-96 e36] |
| 6.00 to 9.00 | CN(C)CCOc1cc2c(cc(C(=O)NC3(c4ccc(C(=O)O)cc4)CCOC3)n2C)c(Cl)c1Cl (racemic) [I-97 e102] |
| 6.00 to 9.00 | Cc1cc(C2(NC(=O)c3cc4c(Cl)c(Cl)ccc4n3C)CCOC2)ccc1C(=O)O (racemic) [I-98 e155, (±)-4-[3-[(4,5-Dichloro-1-methyl-indole-2-carbonyl)amino]tetrahydro-furan-3-yl]-2-methyl-benzoic acid] |
| 6.00 to 9.00 | Cc1cc(C(=O)O)ccc1C1(NC(=O)c2cc3c(Cl)c(Cl)ccc3n2C)CCOC1 (racemic) [I-99 e89] |
| 6.00 to 9.00 | COCCOc1cc2c(cc(C(=O)NC3(c4ccc(C(=O)O)cc4)CCOC3)n2C)c(Cl)c1Cl (racemic) [I-100 e99] |
| 6.00 to 9.00 | CN1CC(COc2cc3c(cc(C(=O)NC4(c5ccc(C(=O)O)cc5)CCOC4)n3C)c(Cl)c2Cl)CC1=O (racemic) [I-102 e100] |
| 6.00 to 9.00 | CCOc1cc2c(cc(C(=O)NC3(c4ccc(C(=O)O)cc4)CCOC3)n2C)c(Cl)c1Cl (racemic) [I-104 e97] |
| 6.00 to 9.00 | CC(C(=O)O)c1ccc(C2(NC(=O)c3cc4c(Cl)c(Cl)ccc4n3C)CCOC2)cc1 (racemic) [I-105 e152, (±)-2-[4-[3-[(4,5-dichloro-1-methyl-indole-2-carbonyl)amino]tetrahydrofuran-3-yl]phenyl]propanoic acid] |
| 6.00 to 9.00 | Cn1c(C(=O)NC2(c3ccc(C(=O)O)cc3Cl)CCOC2)cc2c(Cl)c(Cl)ccc21 (racemic) [I-107 e24] |
| 6.00 to 9.00 | CC(=O)N1CCC(NC(=O)c2cc3c(Cl)c(Cl)ccc3n2C)(c2ccc(C(=O)O)cc2)C1 (racemic) [I-110 e20] |
| 6.00 to 9.00 | Cn1c(C(=O)NC2(c3ccc(C(=O)O)cc3)CCOC2)cc2c(Cl)c(Cl)c(OCC3CNC(=O)O3)cc21 (racemic) [I-111 e95] |
| 6.00 to 9.00 | Cn1c(C(=O)NC2(c3ccc(C(=O)O)cc3)CCOC2)cc2c(Cl)c3c(cc21)OCCO3 (racemic) [I-113 e35] |
| 6.00 to 9.00 | COc1cc2c(cc(C(=O)NC3(c4ccc(C(=O)O)cc4)CCOC3)n2C)c(Cl)c1Cl (racemic) [I-115 e33] |
| 6.00 to 9.00 | Cc1ccc2c(cc(C(=O)NC3(c4ccc(C(=O)O)cc4)CCOC3)n2C)c1Cl (racemic) [I-116 e32] |
| 6.00 to 9.00 | Cn1c(C(=O)NC2(c3ccc(C(=O)O)cc3F)CCOC2)cc2c(Cl)c(Cl)ccc21 (racemic) [I-118 e29] |
| 6.00 to 9.00 | Cn1c(C(=O)NC2(c3cccc(CC(=O)O)c3)CCOC2)cc2c(Cl)c(Cl)ccc21 (racemic) [I-119 e153, (±)-2-[3-[3-[(4,5-Dichloro-1-methyl-indole-2-carbonyl)amino]tetrahydrofuran-3-yl]phenyl]acetic acid] |

From patent publication US11634412B2, “3-phosphoglycerate dehydrogenase inhibitors and uses thereof” (Raze Therapeutics, Inc., priority 2016, dated 2023)
